From patent US7645752B2, “Sulfonyl substituted 1H-indoles as ligands for the 5-hydroxytryptamine receptors” (Wyeth LLC, priority 2006, dated 2010)
Where a name gives a salt, the structure may show the parent alone. Read-outs that look alike come from different tables or passages of the source.

What was measured:
human hNET = target: T1, human hNET (Homo sapiens, UniProt P23975); assay: Norepinephrine (NE) uptake assay in MDCK-Net6 cells; type: cell-based; details: for inhibition at 1 µM: MDCK-Net6; for IC50: [3H]NE uptake, MDCK-Net6 cells
T1 construct: expressed in transfected cells
T1 sequence (P23975 whole entry): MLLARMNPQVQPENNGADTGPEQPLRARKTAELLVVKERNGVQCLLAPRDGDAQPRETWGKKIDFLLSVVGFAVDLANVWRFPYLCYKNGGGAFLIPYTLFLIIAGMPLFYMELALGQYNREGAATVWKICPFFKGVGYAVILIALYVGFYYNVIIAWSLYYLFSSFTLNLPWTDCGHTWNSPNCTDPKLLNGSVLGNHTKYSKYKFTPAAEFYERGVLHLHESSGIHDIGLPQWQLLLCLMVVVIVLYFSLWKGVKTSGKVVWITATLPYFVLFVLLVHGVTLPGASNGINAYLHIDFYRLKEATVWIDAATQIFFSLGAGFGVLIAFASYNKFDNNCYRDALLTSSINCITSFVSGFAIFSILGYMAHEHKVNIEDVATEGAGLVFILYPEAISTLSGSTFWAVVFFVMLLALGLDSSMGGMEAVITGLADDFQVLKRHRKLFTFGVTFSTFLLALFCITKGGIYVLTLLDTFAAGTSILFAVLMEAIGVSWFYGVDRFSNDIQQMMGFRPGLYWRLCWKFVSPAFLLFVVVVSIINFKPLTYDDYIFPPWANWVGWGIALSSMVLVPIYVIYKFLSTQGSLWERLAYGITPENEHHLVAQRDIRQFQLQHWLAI

human 5-HT2A receptor = human 5-HT2A receptor (Homo sapiens, UniProt P28223); assay: 5-HT2A FLIPR assay, antagonism of DOI calcium response in CHO cells; details: for inhibition at 1 µM: CHO, read-out: 5-HT2A % Inhibition @ 1 uM
Chain of human 5-HT2A receptor (P28223 whole entry): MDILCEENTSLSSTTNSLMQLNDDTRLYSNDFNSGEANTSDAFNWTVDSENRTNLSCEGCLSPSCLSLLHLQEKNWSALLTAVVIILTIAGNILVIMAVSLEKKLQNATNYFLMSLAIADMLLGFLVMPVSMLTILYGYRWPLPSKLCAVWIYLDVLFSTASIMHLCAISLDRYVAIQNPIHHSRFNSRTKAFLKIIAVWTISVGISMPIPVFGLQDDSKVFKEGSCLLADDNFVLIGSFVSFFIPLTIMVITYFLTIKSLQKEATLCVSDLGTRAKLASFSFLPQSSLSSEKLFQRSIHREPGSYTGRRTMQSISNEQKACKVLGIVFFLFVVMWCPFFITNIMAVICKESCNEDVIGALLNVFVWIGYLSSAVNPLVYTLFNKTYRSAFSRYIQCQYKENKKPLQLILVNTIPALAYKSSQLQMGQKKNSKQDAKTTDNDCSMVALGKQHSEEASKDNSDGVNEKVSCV

[1] = target: T2, human cloned 5-HT6 receptors (Homo sapiens, UniProt P50406); assay: 5-HT6 binding affinity, [3H]-LSD displacement on membranes of Hela cells; details: for inhibition at 1 µM: 5-HT6 binding, at 1 micromole, read-out: % inhibition at 1 micromole
T2 construct: expressed in transfected cells; host or cells: HeLa cells
T2 sequence (P50406 whole entry): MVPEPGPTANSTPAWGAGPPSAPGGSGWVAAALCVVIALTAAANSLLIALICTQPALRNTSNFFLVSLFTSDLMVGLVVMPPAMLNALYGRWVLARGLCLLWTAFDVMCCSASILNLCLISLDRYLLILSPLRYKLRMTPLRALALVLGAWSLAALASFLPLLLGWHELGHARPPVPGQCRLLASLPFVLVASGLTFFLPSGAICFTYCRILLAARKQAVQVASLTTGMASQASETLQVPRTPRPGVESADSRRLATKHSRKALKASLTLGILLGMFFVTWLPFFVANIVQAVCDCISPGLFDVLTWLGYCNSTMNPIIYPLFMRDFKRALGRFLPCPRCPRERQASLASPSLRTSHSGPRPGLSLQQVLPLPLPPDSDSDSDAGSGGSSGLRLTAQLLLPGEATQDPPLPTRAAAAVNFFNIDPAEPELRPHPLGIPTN
Procedure: The affinity of test compounds for the 5-HT6 receptor is evaluated in the following manner. Cultured Hela cells expressing human cloned 5-HT6 receptors are harvested and centrifuged at low speed (1,000×g) for 10.0 min to remove the culture media. The harvested cells are suspended in half volume of fresh physiological phosphate buffered saline solution and recentrifuged at the same speed. This operation is repeated. The collected cells are then homogenized in ten volumes of 50 mM Tris.HCl (pH 7.4) and 0.5 mM EDTA. The homogenate is centrifuged at 40,000×g for 30.0 min and the precipitate is collected. The obtained pellet is resuspended in 10 volumes of Tris.HCl buffer and recentrifuged at the same speed. The final pellet is suspended in a small volume of Tris.HCl buffer and the tissue protein content is determined in aliquots of 10-25 microliter volumes. […] The volume of the suspended cell membranes is adjusted to give a tissue protein concentration of 1.0 mg/mL of suspension. The prepared membrane suspension (10 times concentrated) is aliquoted in 1.0 mL volumes and stored at −70° C. until used in subsequent binding experiments.
Binding experiments are performed in a 96 well microtiter plate format in a total volume of 200 microliters. […] The test compounds are added in 20.0 microliter volume.
The bound complex caught on the filter disk is allowed to air dry and the radioactivity is measured in a Packard TopCount® equipped with six photomultiplier detectors, after the addition of 40.0 microliter Microscint®-20 scintillant to each shallow well.
Binding in the presence of varying concentrations of test compound is expressed as a percentage of specific binding in the absence of test compound. The results are plotted as log % bound versus log concentration of the test compound.

[2] = Table 1, [3H]-LSD 3.0 nM, Hela cell membranes, read-out: Ki (nM) @ 5-HT6 receptor
[3] = read-out: 5-HT2A IC50, antagonism of 3 nM DOI, CHO cells, FLIPR

SMILES	melting point [°C]	Ki [1, 2] [nM]	Ki ([1]; Table 2, read-out: 5-HT6 Ki) [nM]	IC50 (human 5-HT2A receptor) [nM]	IC50 (human hNET) [nM]	other results
O=S(=O)(c1ccccc1)c1c[nH]c2cccc(CCNCC3CCCO3)c12 (stereo not shown) (as salt: hydrochloride) [Example 51, N-{2-[3-(phenylsulfonyl)-1H-indol-4-yl]ethyl}-N-((tetrahydrofur-2-yl)methyl)amine]	110 to 115					
NCCc1cccc2[nH]cc(S(=O)(=O)c3ccccc3)c12 (as salt: hydrochloride) [Example 61, {2-[3-(phenylsulfonyl)-1H-indol-4-yl]ethyl}amine]	130 to 134					
NCCc1cccc2[nH]cc(S(=O)(=O)c3cccc(F)c3)c12 (as salt: hydrochloride) [Example 85, {2-[3-(3-fluorophenylsulfonyl)-1H-indol-4-yl]ethyl}amine]	122 to 125					
NCCc1ccc2c(S(=O)(=O)c3ccccc3)c[nH]c2c1 (as salt: hydrochloride) [Example 109, {2-[3-(phenylsulfonyl)-1H-indol-6-yl]ethyl}amine]	178					
CC1CCC[C@H](C)N1CCc1cccc2[nH]cc(S(=O)(=O)c3ccccc3)c12 (stereo in doubt) [Example 52, 4-{2-[(2R*,6S)-2,6-dimethylpiperidin-1-yl]ethyl}-3-(phenylsulfonyl)-1H-indole]						inhibition at 1 µM (human hNET): 32%; inhibition at 1 µM (human 5-HT2A receptor): 16%
CNCCc1ccc2[nH]cc(S(=O)(=O)c3ccccc3)c2c1 [Example 14, N-methyl-N-{2-[3-(phenylsulfonyl)-1H-indol-5-yl]ethyl}amine]	151 to 154	5.2				
CNCCc1ccc2[nH]c(C)c(S(=O)(=O)c3ccccc3)c2c1 [Example 15, N-methyl-N-{2-[2-methyl-3-(phenylsulfonyl)-1H-indol-5-yl]ethyl}amine]	213 to 215					Ki [1]: 44 nM
CCc1[nH]c2ccc(CCNC)cc2c1S(=O)(=O)c1ccccc1 [Example 16, N-{2-[2-ethyl-3-(phenylsulfonyl)-1H-indol-5-yl]ethyl}-N-methylamine]	179 to 182					Ki [1]: 29 nM
CNCCc1ccc2[nH]c(-c3ccccc3)c(S(=O)(=O)c3ccccc3)c2c1 [Example 17, N-methyl-N-{2-[2-phenyl-3-(phenylsulfonyl)-1H-indol-5-yl]ethyl}amine]	180 to 185	355				
O=S(=O)(c1ccccc1)c1c[nH]c2cccc(CCNC3CCC3)c12 [Example 37, N-{2-[3-(phenylsulfonyl)-1H-indol-4-yl]ethyl}cyclobutanamine]		47	47	600	99	
CN1CCN(CCc2cccc3[nH]cc(S(=O)(=O)c4ccccc4)c23)CC1 [Example 59, 4-[2-(4-methylpiperazin-1-yl)ethyl]-3-(phenylsulfonyl)-1H-indole]					1300	inhibition at 1 µM (human 5-HT2A receptor): 13%
O=S(=O)(c1ccccc1)c1c[nH]c2cccc(CCN3CCNCC3)c12 [Example 60, 3-(phenylsulfonyl)-4-(2-piperazin-1-ylethyl)-1H-indole]					573	inhibition at 1 µM (human 5-HT2A receptor): 24%
CC(C)NCCCc1cccc2[nH]cc(S(=O)(=O)c3ccccc3)c12 [Example 110, N-isopropyl-3-[3-(phenylsulfonyl)-1H-indol-4-yl]propan-1-amine]					11	IC50 (human 5-HT2A receptor; [3]): 5980 nM
O=S(=O)(c1ccccc1)c1c[nH]c2cccc(CCCN3CCCCC3)c12 [Example 111, 3-(phenylsulfonyl)-4-(3-piperidin-1-ylpropyl)-1H-indole]					932	IC50 (human 5-HT2A receptor; [3]): 7970 nM
CCN(C)CCCc1cccc2[nH]cc(S(=O)(=O)c3ccccc3)c12 [Example 112, N-ethyl-N-methyl-3-[3-(phenylsulfonyl)-1H-indol-4-yl]propan-1-amine]					28	IC50 (human 5-HT2A receptor; [3]): 477 nM

Second part, led by results:

melting point [°C]	Ki [1, 2] [nM]	Ki ([1]; Table 2, read-out: 5-HT6 Ki) [nM]	IC50 (human 5-HT2A receptor) [nM]	SMILES	IC50 (human hNET) [nM]	other results
135				CC(C)(C)CNCCc1cccc2[nH]cc(S(=O)(=O)c3ccccc3)c12 (as salt: hydrochloride) [Example 49, N-(2,2-dimethylpropyl)-N-{2-[3-(phenylsulfonyl)-1H-indol-4-yl]ethyl}amine]		
118 to 120				CN(C)CCc1ccc2c(S(=O)(=O)c3ccccc3)c[nH]c2c1 (as salt: hydrochloride) [Example 86, N,N-dimethyl-N-{2-[3-(phenylsulfonyl)-1H-indol-6-yl]ethyl}amine]		
	142	142		CN(C)CCc1cccc2[nH]cc(S(=O)(=O)c3ccccc3)c12 [Example 31, N,N-dimethyl-N-{2-[3-(phenylsulfonyl)-1H-indol-4-yl]ethyl}amine]	80	inhibition at 1 µM ([1]; Table 1): 75%; IC50 (human 5-HT2A receptor; [3]): 459 nM
	143	143		CNCCc1cccc2[nH]cc(S(=O)(=O)c3ccccc3)c12 [Example 32, N-methyl-N-{2-[3-(phenylsulfonyl)-1H-indol-4-yl]ethyl}amine]		IC50 (human 5-HT2A receptor; [3]): 1100 nM
	207	207	1100	CCNCCc1cccc2[nH]cc(S(=O)(=O)c3ccccc3)c12 [Example 33, N-ethyl-N-{2-[3-(phenylsulfonyl)-1H-indol-4-yl]ethyl}amine]		
	216	216		CCCNCCc1cccc2[nH]cc(S(=O)(=O)c3ccccc3)c12 [Example 34, N-{2-[3-(phenylsulfonyl)-1H-indol-4-yl]ethyl}-N-propylamine]		IC50 (human 5-HT2A receptor; [3]): 1080 nM
	194	194		CC(C)NCCc1cccc2[nH]cc(S(=O)(=O)c3ccccc3)c12 [Example 35, N-{2-[3-(phenylsulfonyl)-1H-indol-4-yl]ethyl}propan-2-amine]	51	IC50 (human 5-HT2A receptor; [3]): 645 nM
	170	170	458	O=S(=O)(c1ccccc1)c1c[nH]c2cccc(CCNC3CC3)c12 [Example 36, N-{2-[3-(phenylsulfonyl)-1H-indol-4-yl]ethyl}cyclopropanamine]	371	
	73	73	197	O=S(=O)(c1ccccc1)c1c[nH]c2cccc(CCN3CCCC3)c12 [Example 43, 3-(phenylsulfonyl)-4-(2-pyrrolidin-1-ylethyl)-1H-indole]		
		767		O=S(=O)(c1ccccc1)c1c[nH]c2cccc(CCN3CCOCC3)c12 [Example 45, 4-(2-morpholin-4-ylethyl)-3-(phenylsulfonyl)-1H-indole]		inhibition at 1 µM ([1]; Table 1): 59%; inhibition at 1 µM (human hNET): 28%
		642		CC(C)(C)CNCCc1cccc2[nH]cc(S(=O)(=O)c3ccccc3)c12 [Example 49, N-(2,2-dimethylpropyl)-N-{2-[3-(phenylsulfonyl)-1H-indol-4-yl]ethyl}amine]		inhibition at 1 µM ([1]; Table 1): 63%; inhibition at 1 µM (human hNET): 37%
	91.5	92		CN(C)CCCNCCc1cccc2[nH]cc(S(=O)(=O)c3ccccc3)c12 [Example 50, N,N-dimethyl-N′-{2-[3-(phenylsulfonyl)-1H-indol-4-yl]ethyl}propane-1,3-diamine]		inhibition at 1 µM (human hNET): 28%
			628	CC(C)N(C)CCc1cccc2[nH]cc(S(=O)(=O)c3ccccc3)c12 [Example 53, N-methyl-N-{2-[3-(phenylsulfonyl)-1H-indol-4-yl]ethyl}propan-2-amine]	126	
			197	CCN(CCc1cccc2[nH]cc(S(=O)(=O)c3ccccc3)c12)C(C)C [Example 54, N-ethyl-N-{2-[3-(phenylsulfonyl)-1H-indol-4-yl]ethyl}propan-2-amine]	485	
			114	CC1CCCN1CCc1cccc2[nH]cc(S(=O)(=O)c3ccccc3)c12 (stereo not shown) [Example 55, 4-[2-(2-methylpyrrolidin-1-yl)ethyl]-3-(phenylsulfonyl)-1H-indole]	121	
			73	CC1CCCCN1CCc1cccc2[nH]cc(S(=O)(=O)c3ccccc3)c12 (stereo not shown) [Example 56, 4-[2-(2-methylpiperidin-1-yl)ethyl]-3-(phenylsulfonyl)-1H-indole]		
			72	CC1CCCN(CCc2cccc3[nH]cc(S(=O)(=O)c4ccccc4)c23)C1 (stereo not shown) [Example 57, 4-[2-(3-methylpiperidin-1-yl)ethyl]-3-(phenylsulfonyl)-1H-indole]		
			90	O=S(=O)(c1ccccc1)c1c[nH]c2cccc(CCN3CCCCCC3)c12 [Example 58, 4-(2-azepan-1-ylethyl)-3-(phenylsulfonyl)-1H-indole]		
